Assays:
Rattus norvegicus [1] = assay: Saluretic property after 80 mg/kg oral administration in rats; type: functional
Canis familiaris [2] = assay: Saluretic property in average of two anesthetized dogs after 5 mg/kg intravenous administration; type: functional, Canis lupus familiaris
Canis familiaris [3] = assay: Saluretic property in average of one used conscious dog after 5 mg/kg intravenous administration; type: functional, Canis lupus familiaris
Rattus norvegicus [4] = assay: Saluretic property after 50 mg/kg oral administration in rats; type: functional
Canis familiaris [5] = assay: Saluretic property in average of two conscious dogs after 5 mg/kg intravenous administration; type: functional, Canis lupus familiaris
Canis familiaris [6] = assay: Saluretic property in average of single anesthetized dogs after 5 mg/kg intravenous administration; type: functional, Canis lupus familiaris
Canis familiaris [7] = assay: Saluretic property in average of three anesthetized dogs after 5 mg/kg intravenous administration; type: functional, Canis lupus familiaris
Canis familiaris [8] = assay: Saluretic property in average of two anesthetized dogs after 5 mg/kg iv administration; type: functional, Canis lupus familiaris
Canis familiaris [9] = assay: Saluretic property in average of two anesthetized dogs after 1 mg/kg intravenous administration; type: functional, Canis lupus familiaris

Row | SMILES | Score (Canis familiaris [2]) | Score (Rattus norvegicus [4]) | other results
1 | Cl.Cl.NCc1c(O)ccc2cccnc12 | 0 | – | Score (Rattus norvegicus [1]): 0
2 | Cl.Cl.NCc1c(O)ccc2ncccc12 | – | 0 | Score (Canis familiaris [3]): 1
3 | Cl.Cl.Cl.NCc1cc(Cl)c2cccnc2c1O | – | – | Score (Canis familiaris [5]): 1
4 | CC1Nc2ccc(O)c(CN)c2S1.Cl.Cl (centres undefined) | 0 | 0 | –
5 | Cl.Cl.NCc1ccc2cnccc2c1O | – | 0 | Score (Canis familiaris [6]): 1
6 | Cl.NCc1c(O)ccc2nccnc12 | – | 0 | Score (Canis familiaris [7]): 1
7 | Cl.NCc1cc(Cl)c2ccccc2c1O | 6 | 2 | –
8 | Cc1cc(C)c2c(c1O)C(N)CC2.Cl (centres undefined) | 0 | 0 | –
9 | Cc1cc(=O)oc2ccc(O)c(CN)c12.Cl | – | 0 | Score (Canis familiaris [8]): 0
10 | Cl.NCc1c(O)ccc2ccccc12 | 1 | – | –
11 | Cc1c(O)c(CN)c(C)c2c1CCCC2.Cl | – | 5 | Score (Canis familiaris [5]): 4
12 | Cl.NC1CCc2c(Cl)ccc(O)c21 (centres undefined) | 1 | – | –
13 | CCC1Cc2c(Cl)c(Cl)c(O)c(CN)c2C1.Cl (centres undefined) | 0 | 0 | –
14 | NCc1ccccc1O [2-(AMINOMETHYL)PHENOL] | – | 0 | Score (Canis familiaris [8]): 0
15 | NS(=O)(=O)c1cc(C(=O)O)c(NCc2ccco2)cc1Cl [FUROSEMIDE] | – | 3 | Score (Canis familiaris [9]): 6
16 | NS(=O)(=O)c1cc2c(cc1Cl)NCNS2(=O)=O [HYDROCHLOROTHIAZIDE] | – | 2 | Score (Canis familiaris [7]): 1

Source: ChEMBL document CHEMBL1122215, “2-(Aminomethyl)phenols, a new class of saluretic agents. 5. Fused-ring analogues” (1983)
